Measurements published in patent US4661494A (priority 1985, dated 1987).

Columns and labels:
Assay type in all cases: in vivo
[1] = system: Tomato Late Blight organism Phytophthora infestans; assay: whole plant or invertebrate
[2] = system: Rice Blast organism Piricularia oryzae; assay: whole plant or invertebrate
[3] = system: Bean Powdery Mildew organism Erysiphe polygoni; assay: Bean Powdery Mildew control, seedling bean plants; conditions: inoculated 1 day later, 10 days
Description: The compounds of the invention were tested for the control of the Bean Powdery Mildew organism Erysiphe polygoni. Seedling bean plants were sprayed with a 250-ppm solution of the test compound in acetone, water and a nonionic emulsifier. The sprayed plants were then inoculated 1 day later with the organism. The plants were maintained for 10 days at temperatures of 68° F. at night with daytime temperatures of 72° F. to 80° F.; relative humidity was maintained at 40% to 60%. The percent disease control provided by a given test compound was based on the percent disease reduction relative to the untreated check plants.

[4] = system: Celery Late Blight organism Septoria apii; assay: whole plant or invertebrate
Uromyces phaseoli tipica = assay: Leaf Rust (Bean Rust) control, pinto beans; conditions: about 14 days
Description: The Leaf Rust test was made using pinto beans. The pathogen was Uromyces phaseoli tipica. The pinto bean plants were sprayed with a 250-ppm solution of the test compound in an acetone-water mixture containing a nonionic emulsifier. The treated plants were inoculated thereafter with the pathogen and then incubated in an environmental chamber for approximately 20 hours at 100% relative humidity and a temperature of 68° F. to 70° F. The plants were then removed from the chamber, allowed to dry, and then maintained in a greenhouse at a 60% to 80% relative humidity. The rate of infection on the leaves was made after about 14 days. The percent disease control provided by a given test compound was based on the percent disease reduction relative to untreated check plants.

[5] = system: Grape Downy Mildew organism Plasmopara viticola; assay: Grape Downy Mildew control, detached grape leaves; conditions: held 7 to 9 days after 2 days incubation
Description: The compounds of the invention were tested for the control of the Grape Downy Mildew organism Plasmopara viticola. Detached leaves, between 70 mm and 85 mm in diameter, 7-week-old Vitis vinifera cultivar Emperor grape seedlings were used as hosts. The leaves were sprayed with a 250-ppm solution of the test compound in acetone. The sprayed leaves were dried, inoculated with a spore suspension of the organism, placed in a humid environmental chamber and incubated at 66° F. to 68° F. and about 100% relative humidity. After incubation for 2 days, the plants were then held in a greenhouse 7 to 9 days; then the amount of disease control was determined. The percent disease control provided by a given test compound was based on the percent disease reduction relative to untreated check plants.

[6] = system: Tomato Early Blight organism Alternaria solani conidia; assay: Tomato Early Blight control, tomato seedlings; conditions: inoculated 1 day later, about 12 days
Description: Compounds of the invention were tested for the control of the Tomato Early Blight organism Alternaria solani conidia. Tomato (variety Bonny Best) seedlings of 6- to 7-weeks old were used. The tomato plants were sprayed with a 250-ppm solution of the test compound in an acetone-and-water solution containing a small amount of a nonionic emulsifier. The sprayed plants were inoculated 1 day later with the organism, placed in the environmental chamber and incubated at 66° F. to 68° F. and 100% relative humidity for 24 hours. Following the incubation, the plants were maintained in a greenhouse for about 12 days. Percent disease control was based on the percent disease development on untreated check plants.

Row | Compound | activity at 250 ppm ([1]; Phytophthora infestans, read-out: Fungicidal Activity % Control TLB) | activity at 625 ppm ([2]; Pyricularia oryzae, read-out: Fungicidal Activity % Control RB) | activity at 250 ppm ([3]; Erysiphe polygoni, read-out: Fungicidal Activity % Control BPM) | activity at 250 ppm ([4]; 336 h, read-out: Fungicidal Activity % Control CLB) | activity at 250 ppm (Uromyces phaseoli tipica; Uromyces phaseoli, 336 h, read-out: Fungicidal Activity % Control BR) | activity at 250 ppm ([5]; Plasmopara viticola, in Vitis vinifera, read-out: Fungicidal Activity % Control GDM) | activity at 250 ppm ([6]; Alternaria solani, read-out: Fungicidal Activity % Control TEB) | Fungicidal Activity % Control TLB ([1]; 250 ppm, tomato, inoculated 1 day later, approximately 7 days) | Fungicidal Activity % Control RB ([2]; 625 ppm, rice (Calrose M-9), inoculated 1 day later, about 12 to 16 days) | Fungicidal Activity % Control BPM ([3]; 250 ppm) | Fungicidal Activity % Control CLB ([4]; 250 ppm, celery (Utah), approximately 14 days) | Fungicidal Activity % Control BR (Uromyces phaseoli tipica; 250 ppm) | Fungicidal Activity % Control GDM ([5]; 250 ppm, detached Vitis vinifera leaves) | Fungicidal Activity % Control TEB ([6]; 250 ppm)
1 | CCCN(CC(=O)Nc1c(Cl)cc(Cl)cc1Cl)C(=O)c1cccnc1 [Compound 1, N-(2,4,6-trichlorophenyl), N'-(n-propyl), N'-(3-pyridylcarbonyl) glycinamide] | 0% | 0% | 100% | 50% | 4% | 3% | 85% |  |  |  |  |  |  | 
2 | CCCN(CC(=O)Nc1c(C)cccc1C)C(=O)c1cccnc1 [Compound 2, N-(2,6-dimethylphenyl)-N'-(n-propyl), N'-(3-pyridylcarbonyl) glycinamide] |  |  |  |  |  |  |  | 10% | 0% | 53% | 58% | 0% | 7% | 22%
